Results published in patent US20230174584A1, “Antibiotic Compounds” (priority 2019, published 2023).
In brackets after ≈: the same amount, converted by molar mass.

Key:
E. faecalis E1246 = assay: MIC assay; assay type: cell-based, Enterococcus faecalis
Method in brief: (§1)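 MICs (μg/mL) were read after 24 h incubation at 37 °C and taken as the median of at least three replicates. Compounds were serially diluted twofold in TSB containing 0.002% polysorbate 80 and inoculated with an equal volume of bacteria at 10^6 CFU/mL.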

[1] = tested on: panel of 31 vancomycin-resistant E. faecium strains; assay: MIC assay, MIC50/MIC90 over panel; assay type: cell-based, Enterococcus faecium; conditions: panel of 31 vancomycin-resistant E. faecium strains
Description: The antibacterial activity of the compounds was tested against a panel of bacteria, including Gram-positive bacteria (S. aureus ATCC29213, S. aureus USA300, S. aureus LIM-2, NR-45881, S. aureus HIP13419, NR-46413, E. faecium E155, E. faecium E7314, E. faecium E980, E. faecalis E1246, E. faecalis E7406 and S. pneumonia 153). The antibacterial activity of the compounds was further tested against S. aureus NY-155, NR-46236, S. aureus HIP12864, NR-46074, S. aureus 880 (BR-VRSA), NR-49120, E. faecalis E1246, E. faecalis E7604, as well as some Gram-negative bacteria (Escherichia coli and Klebsiella pneumoniae). Minimum inhibitory concentrations (MICs) in μg/mL were performed according to the CLSI guidelines. From glycerol stocks, bacterial strains were cultured on blood agar plates and incubated at 37° C. for 18 h. A single colony was transferred to tryptic soy broth (TSB) with 0.002% polysorbate 80 (p80). For the Enterococcus, VISA and VRSA strains, the cultures were grown at 37° C. until the optical density of the suspension reached a level equivalent to the 0.5 McFarland standard. The bacterial suspensions were diluted in TSB with 0.002% p80 to reach a bacterial cell density of 10^6 CFU/mL. In case of the other (vancomycin-sensitive) S. aureus strains, the direct colony suspension method was used. For these strains, after transfer of the colonies to TSB with 0.002% p80, they were immediately diluted to 10^6 CFU/mL, instead of incubated prior to this dilution. In the case of S. pneumonia, direct colony suspension was used by immediately suspending multiple colonies from fresh blood agar plates in TSB+0.002% p80 to an OD600 of 0.5 and subsequent dilution to 10^6 CFU mL^−1 in TSB+0.002% p80+5% lysed horse blood. Antibiotic dilutions for this strains were also made in TSB+0.002% p80+5% lysed horse blood. Both agar and microplates containing S. pneumonia were incubated at 37° C. with 5% CO2 for 24 h with constant shaking (600 rpm). […] The cultures were grown to exponential phase (OD600=0.5) at 37° C. […] In polypropylene 96-well microtiter plates, test compounds were added in biological triplicates and serial diluted 2-fold by transfer and mixing from one well to the next to achieve a final volume of 50 μL per well. An equal volume of bacterial suspension (10^6 CFU mL^−1) was added to the wells. The plates were sealed with breathable membranes and incubated at 37° C. for 24 h with constant shaking (600 rpm). In polypropylene microtiter plates, 100 μL of the test compounds was added to the first row in biological triplicates, and 50 μL of media was added to the other wells. The compounds were subjected to serial dilution by transfer and mixing of 50 μL from one well to the next. Subsequently, 50 μL of bacterial suspension (10^6 CFU/mL) was added to the wells. The plates were sealed with breathable membranes and incubated at 37° C. for 24 h with constant shaking (600 rpm). Positive growth control consisted of wells with bacterial suspension and without antibiotic. Negative growth control consisted of solely media without bacterial suspension or antibiotic. The MICs were determined from the median of a minimum of triplicates.

E. faecium E6016 = assay: MIC assay; assay type: cell-based, Enterococcus faecium; conditions: E. faecium E6016, VanA
Method in brief: as §1

E. faecium E7329 = assay: MIC assay; assay type: cell-based, Enterococcus faecium; conditions: E. faecium E7329, VanA
Method in brief: as §1

E. faecium E0333 = assay: MIC assay; assay type: cell-based, Enterococcus faecium; conditions: E. faecium E0333, VanA
Method in brief: as §1

E. faecium E7424 = assay: MIC assay; assay type: cell-based, Enterococcus faecium; conditions: E. faecium E7424, VanB
Method in brief: as §1

E. faecium E7401 = assay: MIC assay; assay type: cell-based, Enterococcus faecium; conditions: E. faecium E7401, VanB
Method in brief: as §1

E. faecium E7413 = assay: MIC assay; assay type: cell-based, Enterococcus faecium; conditions: E. faecium E7413, VanA
Method in brief: as §1

E. faecium E0013 = assay: MIC assay; assay type: cell-based, Enterococcus faecium; conditions: E. faecium E0013, VanA
Method in brief: as §1

E. faecium EO321 = assay: MIC assay; assay type: cell-based, Enterococcus faecium; conditions: E. faecium EO321, VanA
Method in brief: as §1

E. faecium E0300 = assay: MIC assay; assay type: cell-based, Enterococcus faecium; conditions: E. faecium E0300, VanA
Method in brief: as §1

E. faecium E1130 = assay: MIC assay; assay type: cell-based, Enterococcus faecium; conditions: E. faecium E1130, VanA
Method in brief: as §1

E. faecium E980 = assay: MIC assay; assay type: cell-based, Enterococcus faecium; conditions: E. faecium E980 VSE
Method in brief: as §1

E. faecium E7403 = assay: MIC assay; assay type: cell-based, Enterococcus faecium; conditions: E. faecium E7403, VanB
Method in brief: as §1

E. faecium E8237 = assay: MIC assay; assay type: cell-based, Enterococcus faecium; conditions: E. faecium E8237, VanA
Method in brief: as §1

E. faecium E8235 = assay: MIC assay; assay type: cell-based, Enterococcus faecium; conditions: E. faecium E8235, VanB
Method in brief: as §1

E. faecium E8218 = assay: MIC assay; assay type: cell-based, Enterococcus faecium; conditions: E. faecium E8218, VanB
Method in brief: as §1

E. faecium E7464 = assay: MIC assay; assay type: cell-based, Enterococcus faecium; conditions: E. faecium E7464, VanB
Method in brief: as §1

E. faecium E2297 = assay: MIC assay; assay type: cell-based, Enterococcus faecium; conditions: E. faecium E2297, VanA
Method in brief: as §1

E. faecium E0506 = assay: MIC assay; assay type: cell-based, Enterococcus faecium; conditions: E. faecium E0506, VanA
Method in brief: as §1

E. faecium E0745 = assay: MIC assay; assay type: cell-based, Enterococcus faecium; conditions: E. faecium E0745, VanA
Method in brief: as §1

Q: What does the source list for CCCCCCN(CCCCCC)C(N)=Nc1ccc(CN[C@@]2(C)C[C@H](O[C@H]3[C@H](Oc4c5cc6cc4Oc4ccc(cc4Cl)[C@@H](O)[C@@H](NC(=O)[C@@H](CC(C)C)NC)C(=O)N[C@@H](CC(N)=O)C(=O)N[C@H]6C(=O)N[C@H]4C(=O)N[C@H](C(=O)N[C@H](C(=O)O)c6cc(O)cc(O)c6-c6cc4ccc6O)[C@H](O)c4ccc(c(Cl)c4)O5)O[C@H](CO)[C@@H](O)[C@@H]3O)O[C@@H](C)[C@H]2O)cc1 [Compound 12]?
A: MIC (E. faecalis E1246; E. faecalis E1246 VRE (VanA), Table 7): 8 µg/mL (≈ 4.53 µM); MIC (E. faecalis E1246; E. faecalis E1246 VRE (vanA), Table 9): 8 µg/mL (≈ 4.53 µM); MIC50 [1]: 0.25 µg/mL (≈ 0.142 µM); MIC90 [1]: 2 µg/mL (≈ 1.13 µM); MIC (E. faecium E6016): 0.5 µg/mL (≈ 0.283 µM); MIC (E. faecium E7329): ≤0.008 µg/mL; MIC (E. faecium E0333): 2 µg/mL (≈ 1.13 µM); MIC (E. faecium E7424): ≤0.008 µg/mL; MIC (E. faecium E7401): ≤0.008 µg/mL; MIC (E. faecium E7413): 2 µg/mL (≈ 1.13 µM); MIC (E. faecium E0013): 2 µg/mL (≈ 1.13 µM); MIC (E. faecium EO321): 2 µg/mL (≈ 1.13 µM); MIC (E. faecium E0300): 1 µg/mL (≈ 0.567 µM); MIC (E. faecium E1130): ≤0.008 µg/mL; MIC (E. faecium E980): ≤0.007812 µg/mL; MIC (E. faecium E7403): ≤0.008 µg/mL; MIC (E. faecium E8237): 2 µg/mL (≈ 1.13 µM); MIC (E. faecium E8235): ≤0.008 µg/mL; MIC (E. faecium E8218): ≤0.008 µg/mL; MIC (E. faecium E7464): ≤0.008 µg/mL; MIC (E. faecium E2297): 1 µg/mL (≈ 0.567 µM); MIC (E. faecium E0506): 1 µg/mL (≈ 0.567 µM); MIC (E. faecium E0745): 0.25 µg/mL (≈ 0.142 µM)
